Data as given in ChEMBL document CHEMBL1201862, “PubChem BioAssay data set” (2004).
Active and inactive are the calls of the source.

Legend:
Type in all cases: functional
H4 = assay: Luminescence Cell-Based Dose Response HTS to Identify Activators of 5'UTR Stem-Loop Driven Prion Protein mRNA Translation in H4 Neuroglioblastoma Cells. [Related pubchem assays: 1829 (Project Summary), 1814 (Primary HTS)]; details: Homo sapiens
[1] = Luminescence Cell-Based Dose Confirmation HTS to Identify Activators of 5'UTR Stem-Loop Driven Alpha-Synuclein mRNA Translation in H4 Neuroglioblastoma Cells. [Related pubchem assays: 1829 (Project Summary), 1814 (Primary HTS)]
[2] = Luminescence Cell-Based Dose Response HTS to Identify Activators of Luciferase Translation or Activity in H4 […] Cells. [Related pubchem assays: 1829 (Project Summary), 1814 (Primary HTS)]
Vero = assay: viability of Vero cells under compound – cytotoxicity control for flavivirus capping enzyme inhibitors (AID 588742); details: Chlorocebus sabaeus
[3] = viability loss in THP-1 monocytes – THP-1 cells, cytotoxicity control for Vif-APOBEC3G degradation inhibitor project, dose response (AID 1117359); details: THP-1
Genome polyprotein = Genome polyprotein (dengue virus type 2, UniProt P29990); assay: flavivirus cap methylation enzyme inhibition – biochemical, confirmation dose response, primary screen (AID 588689)
[4] = target: T1, Corticotropin-releasing factor receptor 2/Corticotropin-releasing factor-binding protein (Homo sapiens, UniProt P24387+Q13324); assay: activators of CRF receptor 2 with binding protein – uHTS hits, confirmation (AID 602473); details: read-out: EC50_Mean
T1 sequence (Q13324 whole entry): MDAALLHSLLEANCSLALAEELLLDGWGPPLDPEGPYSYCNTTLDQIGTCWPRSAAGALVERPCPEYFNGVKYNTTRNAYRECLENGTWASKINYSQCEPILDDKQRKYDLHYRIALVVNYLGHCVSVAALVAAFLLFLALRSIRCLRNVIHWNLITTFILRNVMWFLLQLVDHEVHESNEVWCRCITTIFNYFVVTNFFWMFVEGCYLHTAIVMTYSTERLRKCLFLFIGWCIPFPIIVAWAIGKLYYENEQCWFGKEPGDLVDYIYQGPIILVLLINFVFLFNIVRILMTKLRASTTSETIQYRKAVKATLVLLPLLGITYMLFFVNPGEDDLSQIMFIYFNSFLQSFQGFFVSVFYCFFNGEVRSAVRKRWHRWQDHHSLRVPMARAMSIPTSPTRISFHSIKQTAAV
T1 sequence (P24387 whole entry): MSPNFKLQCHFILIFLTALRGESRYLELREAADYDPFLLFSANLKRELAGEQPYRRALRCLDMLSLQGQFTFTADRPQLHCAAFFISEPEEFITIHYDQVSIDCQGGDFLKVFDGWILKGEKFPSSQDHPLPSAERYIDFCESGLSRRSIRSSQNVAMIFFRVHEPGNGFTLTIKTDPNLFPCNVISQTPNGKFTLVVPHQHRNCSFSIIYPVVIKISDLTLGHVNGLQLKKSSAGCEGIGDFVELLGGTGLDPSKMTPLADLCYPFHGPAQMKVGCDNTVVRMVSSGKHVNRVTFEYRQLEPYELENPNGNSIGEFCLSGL

[5] = target: T1, Corticotropin-releasing factor receptor 2/Corticotropin-releasing factor-binding protein; assay: Dose Response confirmation of uHTS hits for small molecule antagonists of the CRF-binding protein and CRF-R2 receptor complex.; details: read-out: IC50_Mean

Sequence of Genome polyprotein (P29990 2492-3391 limits assumed): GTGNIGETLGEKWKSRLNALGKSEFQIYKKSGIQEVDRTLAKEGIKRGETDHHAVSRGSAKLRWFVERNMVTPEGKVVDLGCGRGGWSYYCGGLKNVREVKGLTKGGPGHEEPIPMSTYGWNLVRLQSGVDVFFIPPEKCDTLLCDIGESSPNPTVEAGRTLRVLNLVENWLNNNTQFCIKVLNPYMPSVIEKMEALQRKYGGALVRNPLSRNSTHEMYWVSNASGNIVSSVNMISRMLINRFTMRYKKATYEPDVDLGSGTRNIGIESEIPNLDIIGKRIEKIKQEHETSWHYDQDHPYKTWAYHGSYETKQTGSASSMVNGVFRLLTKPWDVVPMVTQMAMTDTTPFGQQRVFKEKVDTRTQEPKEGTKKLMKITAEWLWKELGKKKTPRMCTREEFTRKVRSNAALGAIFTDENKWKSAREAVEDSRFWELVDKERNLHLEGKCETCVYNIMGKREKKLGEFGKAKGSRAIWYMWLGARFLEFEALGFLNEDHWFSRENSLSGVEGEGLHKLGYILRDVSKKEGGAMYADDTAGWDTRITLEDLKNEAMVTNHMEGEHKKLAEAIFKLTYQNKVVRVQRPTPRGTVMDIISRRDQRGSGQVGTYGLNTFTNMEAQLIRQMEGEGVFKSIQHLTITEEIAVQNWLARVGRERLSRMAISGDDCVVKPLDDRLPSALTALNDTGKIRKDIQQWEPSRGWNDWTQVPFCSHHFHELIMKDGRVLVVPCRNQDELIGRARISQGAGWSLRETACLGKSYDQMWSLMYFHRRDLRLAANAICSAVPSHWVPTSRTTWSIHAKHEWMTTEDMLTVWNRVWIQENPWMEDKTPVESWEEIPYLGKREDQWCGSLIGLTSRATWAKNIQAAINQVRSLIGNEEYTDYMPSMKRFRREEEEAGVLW

Row | Structure (SMILES) | EC50 (H4) | EC50 [1] | EC50 [2] | EC50 [4] | IC50 [5] | further results
1 | COc1cccc(NC(=O)COC(=O)c2c(F)cccc2Cl)c1 | 20.2 µM (active) | 66.8 µM (active) | 16.1 µM (active) | – | – | –
2 | CC1=C(SCc2ccccc2)C(=O)c2ccccc2C1=O | – | – | – | – | – | CC50 (Vero): > 40 µM (active); CC50 [3]: 34.6 µM (active); IC50 (Genome polyprotein): 76.8 µM (active)
3 | COC(=O)c1cc(OC)c(OC)cc1NC(=O)C(C)Sc1ccc(C)cc1 (stereo not drawn) | – | – | – | > 53 µM (inactive) | > 47.1 µM (inactive) | –
4 | COc1ccc(NC(=O)C(Sc2ccccc2)c2ccccc2)c(OC)c1 (stereo not drawn) | – | – | – | > 53 µM (inactive) | > 47.1 µM (inactive) | –
5 | c1ccc(CN2CCC(NC3=NN=C(c4ccc5c(c4)OCCO5)CS3)CC2)cc1 | 48.5 µM (active) | 12.5 µM (active) | > 120 µM (not active) | – | – | –
6 | O=C1C(=Cc2ccncc2)CCCc2ccccc21 | – | – | – | > 53 µM (inactive) | > 47.1 µM (inactive) | –
7 | COc1ccccc1NC(=O)CSc1nnc(CNC(=O)c2ccco2)o1 | – | – | – | > 53 µM (inactive) | > 47.1 µM (inactive) | –
8 | O=C(Nc1cccc(S(=O)(=O)N2CCCCC2)c1)c1ccc(S(=O)(=O)C(F)F)cc1 | – | – | – | > 53 µM (inactive) | > 47.1 µM (inactive) | –
9 | CC1=NN(C(N)=S)C(=O)C1N=Nc1cccc(Cl)c1C (stereo not drawn) | – | – | – | – | – | CC50 (Vero): > 40 µM (active)
10 | CC1CCC(NC(=O)C2CCN(c3c4c(nc5ncnn35)CCC4)CC2)CC1 (stereo not drawn) | 22.3 µM (active) | 48.6 µM (active) | 64.8 µM (active) | – | – | –
